Patent US8546357B2, “Boron-containing small molecules for controlling ectoparasites” (priority 2011, dated 2013)

The compounds below were run on Lone star tick larvae (Amblyomma americanum) (assay: Larval immersion microassay against larval-stage Lone star ticks). Settings: 0.3 mM, larval immersion microassay, 24 hours.
Protocol: The larval immersion microassay was conducted as described in detail in White, et al., J. Med. Entomol. 41: 1034-1042 (2004). Compounds of the invention were formulated in dimethylsulfoxide (DMSO) to prepare a stock solution at a concentration of at least 10 mM. Using 96-well microtiter plates, an aliquot of the mM sample was subsequently diluted in a water-based solution containing 1% ethanol and 0.2% Triton X-100, to obtain the desired concentration (typically 0.3 mM or lower) of compound in a volume of 0.1 ml (minimum n=3 replicates per compound or concentration). Approximately 30-50 Lone star tick larvae (Amblyomma americanum) were submerged into each well containing compounds. After a 30 minute immersion period, larvae were removed with a wide-bore pipette tip in 0.05 ml of fluid, dispensed into a commercial paper tissue biopsy bag which was sealed at the top with a plastic dialysis clip, inverted and allowed to air dry for 60 minutes. Bags containing larvae were then incubated at approximately 27 degrees Celsius and >90% relative humidity. After 24 hours, bags were opened, live and dead larvae were counted and percent larval mortality was calculated.
7 and 8 contain one chiral center each, and are racemic mixtures comprised of approximately 50% R- and 50% S-enantiomer. In vitro and surrogate animal (rat) studies were conducted to evaluate the biological activity of the R- and S-enantiomers of 7 and 8. For the in vitro study, larvae of the Lone star tick (Amblyomma americanum) were exposed to 9, 10, 11 and 12 using the larval immersion microassay at a concentration of no greater than 0.3 mM. Following exposure, larvae were removed, transferred to a tissue biopsy bag and incubated at approximately 27 degrees Celsius and >90% relative humidity. After 24 hours, biopsy bags were opened and the numbers of live and dead larvae were determined
`Cc1cc(C2=NO[C@](c3cc(Cl)c(Cl)c(Cl)c3)(C(F)(F)F)C2)ccc1C(=O)NCc1ccc2c(c1)B(O)OC2(C)C` [Compound 10, (R)—N-((1-hydroxy-3,3-dimethyl-1,3-dihydrobenzo[c][1,2]oxaborol-6-yl)methyl)-2-methyl-4-(5-(3,4,5-trichlorophenyl)-5-(trifluoromethyl)-4,5-dihydroisoxazol-3-yl)benzamide] was tested, and the “In vitro activity at 0.3 mM” value was 0.0%. `Cc1cc(C2=NO[C@](c3cc(Cl)c(F)c(Cl)c3)(C(F)(F)F)C2)ccc1C(=O)NCc1ccc2c(c1)B(O)OC2(C)C` [Compound 12, (R)-4-(5-(3,5-Dichloro-4-fluorophenyl)-5-(trifluoromethyl)-4,5-dihydroisoxazol-3-yl)-N-((1-hydroxy-3,3-dimethyl-1,3-dihydrobenzo[c][1,2]oxaborol-6-yl)methyl)-2-methylbenzamide] was tested, and the “In vitro activity at 0.3 mM” value was 0.0%.

Same assay, conditions: Amblyomma americanum, 24 h, read-out: activity (percent larval mortality)
`Cc1cc(C2=NOC(c3cc(Cl)c(Cl)c(Cl)c3)(C(F)(F)F)C2)ccc1C(=O)NCc1ccc2c(c1)C(C)(C)OB2O` (stereo not drawn) [Compound 1, N-((1-Hydroxy-3,3-dimethyl-1,3-dihydrobenzo[c][1,2]oxaborol-5-yl)methyl)-2-methyl-4-(5-(3,4,5-trichlorophenyl)-5-(trifluoromethyl)-4,5-dihydroisoxazol-3-yl)benzamide] showed a mortality at 300 µM of no less than 80%. Work on `Cc1cc(C2=NOC(c3cc(Cl)cc(Cl)c3)(C(F)(F)F)C2)ccc1C(=O)NCc1ccc2c(c1)C(C)(C)OB2O` (stereo not drawn) [Compound 2, 4-(5-(3,5-Dichlorophenyl)-5-(trifluoromethyl)-4,5-dihydroisoxazol-3-yl)-N-((1-hydroxy-3,3-dimethyl-1,3-dihydrobenzo[c][1,2]oxaborol-5-yl)methyl)-2-methylbenzamide] yielded a mortality at 300 µM of no less than 80%. `Cc1cc(C2=NOC(c3cc(Cl)cc(Cl)c3)(C(F)(F)F)C2)ccc1C(=O)NCc1ccc2c(c1)B(O)OC2` (stereo not drawn) [Compound 4, 4-(5-(3,5-Dichlorophenyl)-5-(trifluoromethyl)-4,5-dihydroisoxazol-3-yl)-N-((1-hydroxy-1,3-dihydrobenzo[c][1,2]oxaborol-6-yl)methyl)-2-methylbenzamide] was tested, and the mortality at 300 µM was no less than 80%. `CCC1(CC)OB(O)c2cc(CNC(=O)c3ccc(C4=NOC(c5cc(Cl)cc(Cl)c5)(C(F)(F)F)C4)cc3C)ccc21` (stereo not drawn) [Compound 13, 4-(5-(3,5-Dichlorophenyl)-5-(trifluoromethyl)-4,5-dihydroisoxazol-3-yl)-N-((3,3-diethyl-1-hydroxy-1,3-dihydrobenzo[c][1,2]oxaborol-6-yl)methyl)-2-methylbenzamide] gave a mortality at 300 µM of no less than 80%. For `CCC1(CC)OB(O)c2cc(CNC(=O)c3ccc(C4=NOC(c5cc(Cl)c(F)c(Cl)c5)(C(F)(F)F)C4)cc3C)ccc21` (stereo not drawn) [Compound 14, 4-(5-(3,5-Dichloro-4-fluorophenyl)-5-(trifluoromethyl)-4,5-dihydroisoxazol-3-yl)-N-((3,3-diethyl-1-hydroxy-1,3-dihydrobenzo[c][1,2]oxaborol-6-yl)methyl)-2-methylbenzamide], the mortality at 300 µM was no less than 80%. `Cc1cc(C2=NOC(c3cc(Cl)cc(Cl)c3)(C(F)(F)F)C2)ccc1C(=O)NCc1ccc2c(c1)B(O)OC2(CF)CF` (stereo not drawn) [Compound 16, N-((3,3-Bis(fluoromethyl)-1-hydroxy-1,3-dihydrobenzo[c][1,2]oxaborol-6-yl)methyl)-4-(5-(3,5-dichlorophenyl)-5-(trifluoromethyl)-4,5-dihydroisoxazol-3-yl)-2-methylbenzamide] was tested, and the mortality at 300 µM was no less than 80%. `Cc1cc(C2=NOC(c3cc(Cl)c(Cl)c(Cl)c3)(C(F)(F)F)C2)ccc1C(=O)NCc1ccc2c(c1)B(O)OC2(CF)CF` (stereo not drawn) [Compound 17a, N-((3,3-Bis(fluoromethyl)-1-hydroxy-1,3-dihydrobenzo[c][1,2]oxaborol-6-yl)methyl)-2-methyl-4-(5-(3,4,5-trichlorophenyl)-5-(trifluoromethyl)-4,5-dihydroisoxazol-3-yl)benzamide] showed a mortality at 300 µM of no less than 80%.
